Assay results taken from patent US20020081665A1, “Bryostatins, bryopyrans and polyketides: compositions and methods” (priority 1999, published 2002).

How the values were obtained:
B. neritina = assay: gentamicin treatment of B. neritina larvae, bryostatin activity and growth of colonies; design: species or system Bugula neritina; conditions: about 100 micrograms per milliliter for about seven days post-settlement
Procedure: (§1) B. neritina larvae were treated with gentamicin at about 100 micrograms per milliliter for about seven days post-settlement, grown out for 3 months to re-establish their commensal bacterial flora, and then assayed for E. sertula levels and KSa levels by specific PCR and bryostatin activity by phorbol dibutyrate displacement (PdBu) assay (FIG. 7). The standard method for detecting bryostatins is the PdBu displacement assay (DeVries et al., 1988). Rat brain liposomes are incubated with tritiated PdBu, which binds to PKC in the liposomes. The liposomes are collected by filtration and counted in a scintillation counter. If an extract is added that contains a compound that can compete with phorbol for binding, less tritiated PdBu is bound. The assay has a subnanomolar detection limit for pure bryostatin 1 and is suitable for milligram quantities of sample. In B. neritina, the only compounds with PdBu activity are bryostatins, and PdBu activity is a good measure of total bryostatin activity.

E. sertula = assay: gentamicin treatment of B. neritina larvae, E. sertula and KSa levels by specific PCR; design: species or system Candidatus Endobugula sertula; conditions: about 100 micrograms per milliliter for about seven days post-settlement, grown out 3 months, vs untreated controls
Procedure: as §1

[1] = test system: human breast cancer cells; conditions: cited from earlier work
lymphocytes [2] = conditions: cancer patients, intravenous administration; cited from earlier work
lymphocytes [3] = conditions: in vitro; cited from earlier work
melanoma = conditions: cited from earlier work; for side effects: compared with bryostatin 1, melanoma treatment; for effectiveness in treating melanoma: compared with bryostatin 1

## gentamicin
B. neritina
  bryozoan growth rates, treated versus untreated colonies: the same
B. neritina; grown out 3 months, vs untreated controls
  bryostatin activity of treated colonies (PdBu assay): reduced
E. sertula; specific PCR
  KSa levels: reduced dramatically
E. sertula; FIG. 7
  E. sertula population: reduced dramatically

## CCC/C=C/C=C/C(=O)O[C@H]1/C(=C/C(=O)OC)C[C@H]2C[C@H]([C@@H](C)O)OC(=O)C[C@H](O)C[C@@H]3C[C@H](OC(C)=O)C(C)(C)[C@](O)(C[C@@H]4C/C(=C/C(=O)OC)C[C@H](/C=C/C(C)(C)[C@]1(O)O2)O4)O3 [bryostatin 1]
[1]
  sensitization to the cytotoxic effects of gemcitabine: sensitized human breast cancer cells to the cytotoxic effects of gemcitabine
Lymphocytes [2]
  effect on IL-2-induced lymphocyte activity in patients: increased the potential of IL-2 to induce proliferation of LAK activity in lymphocytes
Lymphocytes [3]
  effect on lymphocytes in combination with IL-2: enhances proliferation and IL-2 receptor expression on lymphocytes

## COC(=O)/C=C1/C[C@H]2C[C@]3(O)O[C@H](C[C@@H](O)CC(=O)O[C@@H]([C@@H](C)O)C[C@H]4C/C(=C\C(=O)OC)[C@H](OC(C)=O)[C@@](O)(O4)C(C)(C)/C=C/[C@@H](C1)O2)C[C@H](OC(=O)CC(C)C)C3(C)C [bryostatin 5]
melanoma
  side effects: milder side effects
  effectiveness in treating melanoma: as effective as bryostatin 1

## bryostatin 8
melanoma
  side effects: milder side effects
  effectiveness in treating melanoma: as effective as bryostatin 1
